The values below come from paper PMC5117899 (Cell chemical biology, 2016).

The experiment concerns the target T1, AcnA (Staphylococcus aureus, UniProt Q2FYS9).
T1 sequence (Q2FYS9 1-901): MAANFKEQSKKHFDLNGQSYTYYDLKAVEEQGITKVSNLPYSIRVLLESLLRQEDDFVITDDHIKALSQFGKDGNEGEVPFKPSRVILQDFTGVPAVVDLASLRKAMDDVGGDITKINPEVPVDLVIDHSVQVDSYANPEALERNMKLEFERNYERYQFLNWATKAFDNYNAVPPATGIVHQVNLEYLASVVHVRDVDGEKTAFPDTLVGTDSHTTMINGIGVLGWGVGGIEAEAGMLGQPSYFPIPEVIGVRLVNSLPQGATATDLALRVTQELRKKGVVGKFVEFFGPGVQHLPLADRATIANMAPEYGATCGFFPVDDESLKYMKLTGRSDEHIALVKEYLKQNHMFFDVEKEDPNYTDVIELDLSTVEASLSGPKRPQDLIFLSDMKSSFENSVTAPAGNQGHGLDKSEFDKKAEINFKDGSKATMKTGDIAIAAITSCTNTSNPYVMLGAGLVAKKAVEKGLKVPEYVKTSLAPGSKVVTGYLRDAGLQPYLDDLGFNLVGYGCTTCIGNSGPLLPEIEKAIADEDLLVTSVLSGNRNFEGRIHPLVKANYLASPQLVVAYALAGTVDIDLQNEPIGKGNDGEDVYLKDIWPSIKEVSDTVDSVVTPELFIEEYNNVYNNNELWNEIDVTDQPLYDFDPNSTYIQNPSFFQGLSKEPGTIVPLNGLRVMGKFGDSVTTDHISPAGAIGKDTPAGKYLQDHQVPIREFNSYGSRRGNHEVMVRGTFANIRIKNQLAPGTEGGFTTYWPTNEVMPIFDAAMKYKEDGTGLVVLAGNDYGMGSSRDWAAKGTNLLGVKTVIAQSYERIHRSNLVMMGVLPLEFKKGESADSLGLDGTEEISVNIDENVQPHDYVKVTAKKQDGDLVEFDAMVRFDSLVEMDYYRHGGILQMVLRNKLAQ
The experiment can be described thus: spectrophotometric, cis-aconitate formation at […] nm. In kind it is biochemical. The conditions noted are these: Fe-S cluster reconstituted in vitro.

Take `O=C(O)C[C@H](C(=O)O)[C@@H](O)C(=O)O` [isocitrate]: the “spectrophotometric, cis-aconitate formation at 240 nm” value is recorded as “purified AcnA was determined by monitoring the conversion of isocitrate to cis-aconitate spectrophotometrically”.
